In patent publication US20160367490A1, “MULTI-LAYER TOPICALLY-APPLIED ARTICLE FOR PROVIDING A BENEFIT TO SKIN” (Johnson & Johnson Consumer Inc., priority 2015, published 2016):

Experiment: Franz cell skin delivery of hexylresorcinol (HPLC)
Format: in vitro ADME
Settings: Franz cells, n=4, FIG. 3
Text: Wash Franz cells with ethanol 70%, water and receptor solution (1×PBS, phosphate buffered saline).
Measure skin thickness and electrical resistance
Mount the tissue on Franz cells (n=4).
Once equilibrated, make sure there isn't excess moisture on the surface of the tissue (SC) by dabbing the skin surface with Kimwipes.
Carefully remove the backing on the film and place it on the donor area with a light pressure (5 times tap on skin surface); the adhesive side is in touch with skin.
Mount the donor chamber and leave it overnight
Next morning (After 16 h time point), take a sample (300 uL) (Oh), replace with fresh 1×PBS.
Add 100 uL 1×PBS to the donor chamber, let it sit for 30 sec, remove it using a plastic pipet moving around the edge of the donor. Repeat this cycle 5 times. Pool these 1×PBS solution and analyze by HPLC
Remove the donor chamber with the tissue still mounted on the Franz cells. Use a cotton swab to take out all the remained liquid on skin. Extract drug from this swab by shaking at 100 rpm overnight in 2 mL ethanol: Water (50:50 v/v).
Put the donor chamber back. After every 2 hours (2,4,6 h), take sample (300 uL) and replace with fresh receptor solution.
At 22 h, remove the donor chamber, remove skin from cells, put skin on sheets of paper and do tape stripping with 2 tapes to remove the excessive drug on skin surface. Put these 2 tapes in a well in 6-well plate for extraction. […]

SMILES: CCCCCCCC/C=C\CCCCCCCC(=O)OCC(O)CO (stereo not shown) [Monumuls, glycerol oleate]
- delivery of the hexylresorcinol compared to Example 16C (no emulsifier): greatly enhanced
